Measurements reported in patent US5292733A, “Cephalosporin compounds” (Lucky Limited, priority 1991, dated 1994).
Converted amounts (≈) assume the structure as drawn.

What was measured:
Test in all cases: Antibacterial activity MIC, two-fold agar dilution
Type in all cases: cell-based
[1] = test system: Proteus mirabilis ATCC 25933; conditions: ATCC25933; Proteus mirabilis ATCC 25933; Muller-Hinton agar, 37° C., 20 hours; read-out: Antibacterial Activity MIC
How it was run: (§1)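 Each test compound is diluted two-fold stepwise into Muller-Hinton agar. A 2 μl inoculum (strain at 10^7 CFU/ml) is applied, and plates are kept at 37° C. for 20 hours to obtain the MIC.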

[2] = test system: Bacillus cereus ATCC 11778; conditions: ATCC11778; Bacillus cereus ATCC 11778; Muller-Hinton agar, 37° C., 20 hours; read-out: Antibacterial Activity MIC
How it was run: as §1

[3] = test system: Shigella sonnei ATCC 11060; conditions: ATCC11060, Muller-Hinton agar, 37° C., 20 hours
How it was run: as §1

[4] = test system: Serratia marcescens ATCC 27117; conditions: ATCC27117; Serratia marcescens ATCC 27117; Muller-Hinton agar, 37° C., 20 hours; read-out: Antibacterial Activity MIC
How it was run: as §1

[5] = test system: Bacillus megaterium ATCC 9885; conditions: Priestia megaterium, ATCC9885; Bacillus megaterium ATCC 9885; Muller-Hinton agar, 37° C., 20 hours; read-out: Antibacterial Activity MIC
How it was run: as §1

[6] = test system: Pseudomonas aeruginosa ATCC 25619; conditions: ATCC25619; Pseudomonas aeruginosa ATCC 25619; Muller-Hinton agar, 37° C., 20 hours; read-out: Antibacterial Activity MIC
How it was run: as §1

[7] = test system: Escherichia coli ATCC 25922; conditions: ATCC25922, Muller-Hinton agar, 37° C., 20 hours
How it was run: as §1

[8] = test system: Pseudomonas aeruginosa ATCC 10145; conditions: ATCC10145; Pseudomonas aeruginosa ATCC 10145; Muller-Hinton agar, 37° C., 20 hours; read-out: Antibacterial Activity MIC
How it was run: as §1

[9] = test system: Morganella morganii ATCC 8076h; conditions: ATCC8076H, Muller-Hinton agar, 37° C., 20 hours
How it was run: as §1

[10] = test system: Acinetobacter calcoaceticus ATCC 15473; conditions: ATCC15473; Acinetobacter calcoaceticus ATCC 15473; Muller-Hinton agar, 37° C., 20 hours; read-out: Antibacterial Activity MIC
How it was run: as §1

[11] = test system: Proteus vulgaris ATCC 6059; conditions: ATCC6059; Proteus vulgaris ATCC 6059; Muller-Hinton agar, 37° C., 20 hours; read-out: Antibacterial Activity MIC
How it was run: as §1

[12] = test system: Enterobacter aerogenes ATCC 29751; conditions: Klebsiella aerogenes, ATCC29751; Enterobacter aerogenes ATCC 29751; Muller-Hinton agar, 37° C., 20 hours; read-out: Antibacterial Activity MIC
How it was run: as §1

[13] = test system: Klebsiella pneumoniae ATCC 10031; conditions: ATCC10031; Klebsiella pneumoniae ATCC 10031; Muller-Hinton agar, 37° C., 20 hours; read-out: Antibacterial Activity MIC
How it was run: as §1

[14] = test system: Streptococcus faecalis ATCC 29212; conditions: Enterococcus faecalis, ATCC29212; Streptococcus faecalis ATCC 29212; Muller-Hinton agar, 37° C., 20 hours; read-out: Antibacterial Activity MIC
How it was run: as §1

[15] = test system: Shigella flexneri ATCC 11836; conditions: ATCC11836, Muller-Hinton agar, 37° C., 20 hours
How it was run: as §1

[16] = test system: Citrobacter freundii ATCC 8090; conditions: ATCC8090; Citrobacter freundii ATCC 8090; Muller-Hinton agar, 37° C., 20 hours; read-out: Antibacterial Activity MIC
How it was run: as §1

[17] = test system: Salmonella typhimurium ATCC 14028; conditions: Salmonella enterica; Salmonella typhimurium ATCC 14028; Muller-Hinton agar, 37° C., 20 hours; read-out: Antibacterial Activity MIC
How it was run: as §1

[18] = test system: Micrococcus luteus ATCC 9341; conditions: ATCC9341; Micrococcus luteus ATCC 9341; Muller-Hinton agar, 37° C., 20 hours; read-out: Antibacterial Activity MIC
How it was run: as §1

[19] = test system: Enterobacter cloacae ATCC 27508; conditions: ATCC27508; Enterobacter cloacae ATCC 27508; Muller-Hinton agar, 37° C., 20 hours; read-out: Antibacterial Activity MIC
How it was run: as §1

[20] = test system: Escherichia coli ATCC 10536; conditions: ATCC10536, Muller-Hinton agar, 37° C., 20 hours
How it was run: as §1

[21] = test system: Staphylococcus aureus ATCC 10537; conditions: ATCC10537; Staphylococcus aureus ATCC 10537; Muller-Hinton agar, 37° C., 20 hours; read-out: Antibacterial Activity MIC
How it was run: as §1

[22] = test system: Staphylococcus epidermidis ATCC 12228; conditions: ATCC12228; Staphylococcus epidermidis ATCC 12228; Muller-Hinton agar, 37° C., 20 hours; read-out: Antibacterial Activity MIC
How it was run: as §1

[23] = test system: Pseudomonas aeruginosa ATCC 27853; conditions: ATCC27853; Pseudomonas aeruginosa ATCC 27853; Muller-Hinton agar, 37° C., 20 hours; read-out: Antibacterial Activity MIC
How it was run: as §1

[24] = test system: Providencia rettgeri ATCC 9250; conditions: ATCC9250, Muller-Hinton agar, 37° C., 20 hours
How it was run: as §1

[25] = test system: Staphylococcus aureus ATCC 6538p; conditions: ATCC6538P; Staphylococcus aureus ATCC 6538p; Muller-Hinton agar, 37° C., 20 hours; read-out: Antibacterial Activity MIC
How it was run: as §1

SMILES | MIC [1] | MIC [2] | MIC [3] | MIC [4] | MIC [5] | MIC [6] | MIC [7] | MIC [8] | MIC [9] | MIC [10] | MIC [11] | MIC [12] | MIC [13] | MIC [14] | MIC [15] | MIC [16] | MIC [17] | MIC [18] | MIC [19] | MIC [20] | also measured
CC[n+]1c(SCC2=C(C(=O)[O-])N3C(=O)[C@@H](NC(=O)/C(=N\OC)c4csc(N)n4)[C@H]3SC2)cc(N)nc1N [Compound I-8, (6R,7R)-7-[(Z)-2-(2-aminothiazol-4-yl)-2-(methoxyimino)acetamido]-3-(2,6-diamino-3-ethylpyrimidinium-4-yl)thiomethyl-3-cephem-4-carboxylate] | 0.031 µg/mL (≈ 0.0548 µM) | 64 µg/mL (≈ 113 µM) | 0.5 µg/mL (≈ 0.884 µM) | 0.5 µg/mL (≈ 0.884 µM) | 0.13 µg/mL (≈ 0.23 µM) | 2 µg/mL (≈ 3.54 µM) | 0.063 µg/mL (≈ 0.111 µM) | 32 µg/mL (≈ 56.6 µM) | 16 ng/mL (≈ 0.0283 µM) | 8 µg/mL (≈ 14.1 µM) | 0.063 µg/mL (≈ 0.111 µM) | 0.5 µg/mL (≈ 0.884 µM) | 0.016 µg/mL (≈ 0.0283 µM) | > 128 µg/mL | 0.063 µg/mL (≈ 0.111 µM) | 0.13 µg/mL (≈ 0.23 µM) | 0.5 µg/mL (≈ 0.884 µM) | 0.063 µg/mL (≈ 0.111 µM) | 0.016 µg/mL (≈ 0.0283 µM) | 0.063 µg/mL (≈ 0.111 µM) | MIC [21]: 1 µg/mL (≈ 1.77 µM); MIC [22]: 0.5 µg/mL (≈ 0.884 µM); MIC [23]: 16 µg/mL (≈ 28.3 µM); MIC [24]: ≤ 8 ng/mL; MIC [25]: 2 µg/mL (≈ 3.54 µM)
CC[n+]1c(N)cc(SCC2=C(C(=O)[O-])N3C(=O)[C@@H](NC(=O)/C(=N\OC(C)(C)C(=O)O)c4csc(N)n4)[C@H]3SC2)nc1N [Compound I-13, (6R,7R)-7-[(Z)-2-(2-aminothiazol-4-yl)-2-(carboxyprop-2-oxyimino)acetamido]-3-(2,6-diamino-1-ethylpyrimidinium-4-yl)thiomethyl-3-cephem-4-carboxylate] | 0.13 µg/mL (≈ 0.204 µM) | 128 µg/mL (≈ 201 µM) | 0.25 µg/mL (≈ 0.392 µM) | 0.5 µg/mL (≈ 0.784 µM) | 0.25 µg/mL (≈ 0.392 µM) | 1 µg/mL (≈ 1.57 µM) | 0.13 µg/mL (≈ 0.204 µM) | 2 µg/mL (≈ 3.14 µM) | ≤ 8 ng/mL | 8 µg/mL (≈ 12.5 µM) | 0.25 µg/mL (≈ 0.392 µM) | 2 µg/mL (≈ 3.14 µM) | 0.063 µg/mL (≈ 0.0988 µM) | > 128 µg/mL | 0.063 µg/mL (≈ 0.0988 µM) | 0.13 µg/mL (≈ 0.204 µM) | 0.25 µg/mL (≈ 0.392 µM) | 0.5 µg/mL (≈ 0.784 µM) | 0.031 µg/mL (≈ 0.0486 µM) | 0.13 µg/mL (≈ 0.204 µM) | MIC [21]: 4 µg/mL (≈ 6.27 µM); MIC [22]: 2 µg/mL (≈ 3.14 µM); MIC [23]: 1 µg/mL (≈ 1.57 µM); MIC [24]: ≤ 8 ng/mL; MIC [25]: 8 µg/mL (≈ 12.5 µM)
CO/N=C(\C(=O)N[C@@H]1C(=O)N2C(C(=O)[O-])=C(CSc3cc(N)[n+](C)c(N)n3)CS[C@H]12)c1csc(N)n1 [Compound I-21, (6R,7R)-7-[(Z)-2-(2-aminothiazol-4-yl)-2-(methoxyimino)acetamido]-3-(2,6-diamino-1-methylpyrimidinium-4-yl)thiomethyl-3-cephem-4-carboxylate] | 0.5 µg/mL (≈ 0.906 µM) | 128 µg/mL (≈ 232 µM) | 0.13 µg/mL (≈ 0.236 µM) | 0.25 µg/mL (≈ 0.453 µM) | 0.13 µg/mL (≈ 0.236 µM) | 1 µg/mL (≈ 1.81 µM) | 0.063 µg/mL (≈ 0.114 µM) | 16 µg/mL (≈ 29 µM) | ≤ 8 ng/mL | 8 µg/mL (≈ 14.5 µM) | 0.5 µg/mL (≈ 0.906 µM) | 0.25 µg/mL (≈ 0.453 µM) | ≤ 0.008 µg/mL | 32 µg/mL (≈ 58 µM) | 0.016 µg/mL (≈ 0.029 µM) | 0.031 µg/mL (≈ 0.0562 µM) | 0.13 µg/mL (≈ 0.236 µM) | 0.063 µg/mL (≈ 0.114 µM) | ≤ 0.008 µg/mL | 0.063 µg/mL (≈ 0.114 µM) | MIC [21]: 0.5 µg/mL (≈ 0.906 µM); MIC [22]: 0.25 µg/mL (≈ 0.453 µM); MIC [23]: 2 µg/mL (≈ 3.63 µM); MIC [24]: ≤ 8 ng/mL; MIC [25]: 0.5 µg/mL (≈ 0.906 µM)
C[n+]1c(N)cc(SCC2=C(C(=O)[O-])N3C(=O)[C@@H](NC(=O)/C(=N\OC(C)(C)C(=O)O)c4csc(N)n4)[C@H]3SC2)nc1N [Compound I-12, (6R,7R)-7-[(Z)-2-(2-aminothiazol-4-yl)-2-(carboxyprop-2-oxyimino)acetamido]-3-(2,6-diamino-1-methylpyrimidinium-4-yl)thiomethyl-3-cephem-4-carboxylate] | 0.13 µg/mL (≈ 0.208 µM) | 128 µg/mL (≈ 205 µM) | 0.25 µg/mL (≈ 0.401 µM) | 0.5 µg/mL (≈ 0.802 µM) | 0.25 µg/mL (≈ 0.401 µM) | 1 µg/mL (≈ 1.6 µM) | 0.25 µg/mL (≈ 0.401 µM) | 2 µg/mL (≈ 3.21 µM) | ≤ 8 ng/mL | 8 µg/mL (≈ 12.8 µM) | 0.25 µg/mL (≈ 0.401 µM) | 2 µg/mL (≈ 3.21 µM) | 0.063 µg/mL (≈ 0.101 µM) | > 128 µg/mL | 0.063 µg/mL (≈ 0.101 µM) | 0.13 µg/mL (≈ 0.208 µM) | 0.25 µg/mL (≈ 0.401 µM) | 0.5 µg/mL (≈ 0.802 µM) | 0.031 µg/mL (≈ 0.0497 µM) | 0.25 µg/mL (≈ 0.401 µM) | MIC [21]: 4 µg/mL (≈ 6.41 µM); MIC [22]: 4 µg/mL (≈ 6.41 µM); MIC [23]: 1 µg/mL (≈ 1.6 µM); MIC [24]: ≤ 8 ng/mL; MIC [25]: 8 µg/mL (≈ 12.8 µM)
